From patent US8808743B2, “Benzonatate compositions and methods of use” (priority 2010, dated 2014)

Assay: Simulated buccal dissolution testing (stirred flow-thru cell, simulated saliva)
Type: physicochemical
Conditions: 8 mg dose
From the text: Most USP dissolution tests use large volumes of media—defined as ‘sink conditions’; the aim is to get complete dissolution of the active ingredient. […] They are: • Small volume • Short residence time • Solids transfer • Composition • Incomplete dissolution
For buccal dissolution the volume of saliva is very small compared to that of the stomach and the residence time in the mouth is also very short, the bulk of the dosage form being swallowed within a minute. The dissolution test used here employed procedures and a buccal dissolution apparatus devised by DOW Chemical described in U.S. Pat. No. 7,470,545 B2 herein incorporated by reference to the extent not incompatible herewith.
In order for this test to give meaningful results it is necessary to use a dissolution media that simulates saliva. There is no USP recommended simulated saliva, so the composition used in these studies was based on published ranges. The composition used is shown below:
The technique uses a stirred flow-thru cell with a very short residence time. The buccal dissolution test was set up using simulated saliva, with a liquid volume in the cell of 9 ml, and a flow rate of 5.3 ml/min (2.7 ml/min thru the dip tube to waste, and 2.6 ml/min thru the filter and the in-line UV cell). UV cell path length was 1 mm. The tests were run at room temperature
Buccal dissolution studies were carried out with neat Formosa benzonatate (abbreviated below as “Benz”) and benzonatate resinates prepared from this benzonatate. Preparation of the resinates was at room temperature for 40 hours by the procedure described in Example 2.
Dissolution data were obtained at several benzonatate dosages for both the neat benzonatate and the resinates, and the data were normalized to a dosage of 8 mg. The normalized benzonatate dissolution data are given in Table VII and are plotted as a function of time in FIG. 6.

CCCCNc1ccc(C(=O)OCCOCCOCCOCCOCCOCCOCCOCCOCCOC)cc1 [BENZ, benzonatate]
Benzonatate Conc. In Effluent (0 sec): 0 mg/L | Benzonatate Conc. In Effluent (5 sec): 0 mg/L | Benzonatate Conc. In Effluent (10 sec): 0 mg/L | Benzonatate Conc. In Effluent (15 sec): 37.3 mg/L | Cumulative Benzonatate Released (15 sec): 0.008 mg | Benzonatate Conc. In Effluent (20 sec): 192.8 mg/L | Cumulative Benzonatate Released (20 sec): 0.059 mg | Benzonatate Conc. In Effluent (25 sec): 353.0 mg/L | Cumulative Benzonatate Released (25 sec): 0.180 mg | Benzonatate Conc. In Effluent (30 sec): 473.4 mg/L | Cumulative Benzonatate Released (30 sec): 0.362 mg | Benzonatate Conc. In Effluent (35 sec): 544.2 mg/L | Cumulative Benzonatate Released (35 sec): 0.587 mg | Benzonatate Conc. In Effluent (40 sec): 574.7 mg/L | Cumulative Benzonatate Released (40 sec): 0.834 mg | Benzonatate Conc. In Effluent (45 sec): 585.5 mg/L | Cumulative Benzonatate Released (45 sec): 1.090 mg | Benzonatate Conc. In Effluent (50 sec): 573.6 mg/L | Cumulative Benzonatate Released (50 sec): 1.346 mg | Benzonatate Conc. In Effluent (55 sec): 559.0 mg/L | Cumulative Benzonatate Released (55 sec): 1.596 mg | Benzonatate Conc. In Effluent (60 sec): 541.7 mg/L | Cumulative Benzonatate Released (60 sec): 1.839 mg | Benzonatate Conc. In Effluent (65 sec): 519.6 mg/L | Cumulative Benzonatate Released (65 sec): 2.074 mg | Benzonatate Conc. In Effluent (70 sec): 498.0 mg/L | Cumulative Benzonatate Released (70 sec): 2.298 mg | Benzonatate Conc. In Effluent (75 sec): 480.4 mg/L | Cumulative Benzonatate Released (75 sec): 2.514 mg | Benzonatate Conc. In Effluent (80 sec): 460.2 mg/L | Cumulative Benzonatate Released (80 sec): 2.722 mg | Benzonatate Conc. In Effluent (85 sec): 439.9 mg/L | Cumulative Benzonatate Released (85 sec): 2.921 mg | Benzonatate Conc. In Effluent (90 sec): 421.8 mg/L | Cumulative Benzonatate Released (90 sec): 3.111 mg | Benzonatate Conc. In Effluent (95 sec): 403.2 mg/L | Cumulative Benzonatate Released (95 sec): 3.293 mg | Benzonatate Conc. In Effluent (100 sec): 387.3 mg/L | Cumulative Benzonatate Released (100 sec): 3.468 mg | Benzonatate Conc. In Effluent (105 sec): 369.4 mg/L | Cumulative Benzonatate Released (105 sec): 3.635 mg | Benzonatate Conc. In Effluent (110 sec): 353.5 mg/L | Cumulative Benzonatate Released (110 sec): 3.795 mg | Benzonatate Conc. In Effluent (115 sec): 337.8 mg/L | Cumulative Benzonatate Released (115 sec): 3.947 mg | Benzonatate Conc. In Effluent (120 sec): 323.0 mg/L | Cumulative Benzonatate Released (120 sec): 4.093 mg | Benzonatate Conc. In Effluent (125 sec): 308.9 mg/L | Cumulative Benzonatate Released (125 sec): 4.233 mg | Benzonatate Conc. In Effluent (130 sec): 294.9 mg/L | Cumulative Benzonatate Released (130 sec): 4.366 mg | Benzonatate Conc. In Effluent (135 sec): 282.2 mg/L | Cumulative Benzonatate Released (135 sec): 4.494 mg | Benzonatate Conc. In Effluent (140 sec): 269.8 mg/L | Cumulative Benzonatate Released (140 sec): 4.615 mg | Benzonatate Conc. In Effluent (145 sec): 257.6 mg/L | Cumulative Benzonatate Released (145 sec): 4.732 mg | Benzonatate Conc. In Effluent (150 sec): 246.0 mg/L | Cumulative Benzonatate Released (150 sec): 4.843 mg | Benzonatate Conc. In Effluent (155 sec): 235.2 mg/L | Cumulative Benzonatate Released (155 sec): 4.949 mg | Benzonatate Conc. In Effluent (160 sec): 224.7 mg/L | Cumulative Benzonatate Released (160 sec): 5.051 mg | Benzonatate Conc. In Effluent (165 sec): 214.7 mg/L | Cumulative Benzonatate Released (165 sec): 5.148 mg | Benzonatate Conc. In Effluent (170 sec): 205.2 mg/L | Cumulative Benzonatate Released (170 sec): 5.241 mg | Benzonatate Conc. In Effluent (175 sec): 195.8 mg/L | Cumulative Benzonatate Released (175 sec): 5.329 mg | Benzonatate Conc. In Effluent (180 sec): 187.1 mg/L | Cumulative Benzonatate Released (180 sec): 5.414 mg | Benzonatate Conc. In Effluent (185 sec): 178.8 mg/L | Cumulative Benzonatate Released (185 sec): 5.495 mg | Benzonatate Conc. In Effluent (190 sec): 170.9 mg/L | Cumulative Benzonatate Released (190 sec): 5.572 mg | Benzonatate Conc. In Effluent (195 sec): 163.1 mg/L | Cumulative Benzonatate Released (195 sec): 5.646 mg | Benzonatate Conc. In Effluent (200 sec): 155.8 mg/L | Cumulative Benzonatate Released (200 sec): 5.716 mg | Benzonatate Conc. In Effluent (205 sec): 148.8 mg/L | Cumulative Benzonatate Released (205 sec): 5.783 mg | Benzonatate Conc. In Effluent (210 sec): 142.0 mg/L | Cumulative Benzonatate Released (210 sec): 5.848 mg | Benzonatate Conc. In Effluent (215 sec): 135.6 mg/L | Cumulative Benzonatate Released (215 sec): 5.909 mg | Benzonatate Conc. In Effluent (220 sec): 129.6 mg/L | Cumulative Benzonatate Released (220 sec): 5.967 mg | Benzonatate Conc. In Effluent (225 sec): 123.7 mg/L | Cumulative Benzonatate Released (225 sec): 6.023 mg | Benzonatate Conc. In Effluent (230 sec): 118.3 mg/L | Cumulative Benzonatate Released (230 sec): 6.077 mg | Benzonatate Conc. In Effluent (235 sec): 112.9 mg/L | Cumulative Benzonatate Released (235 sec): 6.128 mg | Benzonatate Conc. In Effluent (240 sec): 107.8 mg/L | Cumulative Benzonatate Released (240 sec): 6.177 mg | Benzonatate Conc. In Effluent (245 sec): 102.9 mg/L | Cumulative Benzonatate Released (245 sec): 6.223 mg | Benzonatate Conc. In Effluent (250 sec): 98.3 mg/L | Cumulative Benzonatate Released (250 sec): 6.268 mg | Benzonatate Conc. In Effluent (255 sec): 93.7 mg/L | Cumulative Benzonatate Released (255 sec): 6.310 mg | Benzonatate Conc. In Effluent (260 sec): 89.7 mg/L | Cumulative Benzonatate Released (260 sec): 6.350 mg | Benzonatate Conc. In Effluent (265 sec): 85.6 mg/L | Cumulative Benzonatate Released (265 sec): 6.389 mg | Benzonatate Conc. In Effluent (270 sec): 81.8 mg/L | Cumulative Benzonatate Released (270 sec): 6.426 mg | Benzonatate Conc. In Effluent (275 sec): 78.0 mg/L | Cumulative Benzonatate Released (275 sec): 6.461 mg | Benzonatate Conc. In Effluent (280 sec): 74.5 mg/L | Cumulative Benzonatate Released (280 sec): 6.495 mg | Benzonatate Conc. In Effluent (285 sec): 71.3 mg/L | Cumulative Benzonatate Released (285 sec): 6.527 mg | Benzonatate Conc. In Effluent (290 sec): 68.1 mg/L | Cumulative Benzonatate Released (290 sec): 6.558 mg | Benzonatate Conc. In Effluent (295 sec): 64.8 mg/L | Cumulative Benzonatate Released (295 sec): 6.587 mg | Benzonatate Conc. In Effluent (300 sec): 61.6 mg/L | Cumulative Benzonatate Released (300 sec): 6.615 mg
